These results are taken from patent publication US20080227796A1, “7-Amino-6-Hetaryl-1,2,4-Triazolo[1,5-A]Pyrimidine Compounds and the Use Thereof for Controlling Pathogenic Fungi” (BASF Aktiengesellschaft, priority 2004, published 2008).

The assay deals with Puccinia recondita. Description: Protective activity against Puccinia recondita on wheat (brown rust of wheat). The conditions noted are these: 250 ppm, protective: wheat seedlings sprayed the day before inoculation, visual rating after a further 7 days; untreated plants 90% infected. The assay is classed as in vivo. On the procedure:
The respective active compound was prepared as a stock solution with 25 mg of active compound which was made up to 10 ml with a mixture of acetone and/or dimethyl sulfoxide (DMSO) and the emulsifier Uniperol® EL (wetting agent having emulsifying and dispersing action based on ethoxylated alkylphenols) in a volume ratio solvent/emulsifier of 99 to 1. The solution was then made up to 100 ml with water. This stock solution was diluted to the active compound concentration stated below using the solvent/emulsifier/water mixture described.
Leaves of potted wheat seedlings of the cultivar “Kanzler” were sprayed to runoff point with an aqueous suspension having the active compound concentration stated below. The next day, the treated plants were inoculated with a spore suspension of brown rust of wheat (Puccinia recondita). The plants were then placed in a chamber with high atmospheric humidity (90 to 95%) at 20 to 22° C. for 24 hours. During this time, the spores germinated and the germ tubes penetrated into the leaf tissue. The next day, the test plants were returned to the greenhouse and cultivated at temperatures between 20 and 22° C. and 65 to 70% relative atmospheric humidity for a further 7 days. The extent of the rust fungal development on the leaves was then determined visually.

Each structure is given as a SMILES string.

For the compound `Cc1cc(-c2c(Cl)nc3ncnn3c2N[C@H](C)C(C)C)ccn1` [Example 59], the infection entry is reported as “no infection”.
